Reference: article PMC10666548, “Identification of the bacterial metabolite aerugine as potential trigger of human dopaminergic neurodegeneration” (Environment international, 2023)
“Also recorded” adds a separate entry of the source.

What was measured:
[1] = test system: aerugine (10 μM) cytotoxicity in LUHMES cultures (d6); assay: Modulation of aerugine-induced neurodegeneration by mechanistic inhibitors; assay type: cell-based, human; details: 24 h; for maximal prevention of aerugine neurotoxicity / prevention of aerugine-induced cell death (viability): inhibitor 15 min prior to 10 μM aerugine
Procedure: (§1) For toxicity assessment of mature LUHMES neurons, precursor cells were pre-differentiated for 2 days in cell culture flasks pre-coated as described above and differentiation medium. Then, 45′000 cells per well were seeded in differentiation medium into standard 96-well plates pre-coated as described above. They were incubated at 37 °C and 5% CO2 for 4 days before compound treatment. At this time, cells were >99% post-mitotic and had established an extensive neurite network ([Scholz et al., 2011]) The cell viability was assessed via the Calcein/Hoechst readout, the LDH assay and the resazurin reduction assay.
(§2) Neurite area (NA) and viability (V) were assessed as described previously ([Stiegler et al., 2011]). In brief, cells were stained with 1 μM calcein-AM and 1 μg/ml H-33342 for 30 min at 37 °C and 5% CO2. Image acquisition was performed using an Array-Scan VTI HCS Reader (Cellomics, PA, USA) equipped with a Hamamatsu ORCA-ER camera. 10 fields per well were imaged with 2 channels at 20x magnification (2×2 pixel binning). Excitation/emission wavelengths of 365 ± 50/535 ± 45 nm were used for Hoechst detection in channel 1 and 474 ± 40/535 ± 45 nm were used for calcein detection in channel 2.
Fig. 4. Modulation of aerugine-induced neurodegeneration by mechanistic inhibitors. LUHMES cultures (d6) were used under standard conditions to assess the cytotoxicity of aerugine (10 μM) in the presence of various agents known to interfere with cell death pathways. A Treatment scheme: the respective inhibitors were applied 15 min prior to aerugine treatment (10 μM), and the viability was determined by high-content imaging after 24 h. B Inhibitors were used at different concentrations, as indicated. The main biochemical activity of each agent is indicated in brackets. Data are means ± SEM of at least three biological replicates with 3 technical replicates each. DFP = deferiprone; DFO = deferoxamine; qVD = caspase inhibitor; RIPK = receptor-interacting serine/threonine-protein kinase. For statistical analysis, the lowest concentration of inhibitor that produced the maximal protective effect (red) was compared to the treatment with aerugine alone using a two-tailed t-test (*: p = 0.01). C Exemplary pictures of LUHMES cultures after 24 h treatment: negative control (=DMSO), positive control (=10 μM aerugine), DFP (=20 μM DFP + 10 μM aerugine) and qVD (=5 μM qVD + 10 μM aerugine). Arrows indicate cells with a broken cell membrane (calcein-negative) and condensed nuclei (small H-33342-positive area). Arrow heads indicate disintegrating neurites (chains of calcein-positive blebs).

[2] = test system: human dopaminergic neurons (LUHMES cells); assay: Cytotoxicity to mature (d6) LUHMES neurons, calcein-AM & H-33342 high content imaging; assay type: cell-based; details: d6 LUHMES; for cytotoxicity to DAergic neurons (viability): 24 h (24 h and 48 h for purified compounds)
Procedure: as §1, §2
Nuclei were identified in channel 1 depending on intensity, area, size and shape. Their outlines were expanded by 3.2 μm to define a virtual cell soma area (VCSA), which was bigger than the average cell soma to prevent false positive NAs. All calcein-positive pixels were defined as viable cellular structures (VCSs). The NA was automatically calculated by excluding the VCSAs from the VCSs. Furthermore all nuclei co-localizing with VCSs were defined as alive.

## CCOC(=O)c1ccc(NC2CCCCC2)c(N)c1 [ferrostatin]
[1]
  maximal prevention of aerugine neurotoxicity: 60–90%

## CC(C)[C@H](NC(=O)c1ccc2ccccc2n1)C(=O)N[C@@H](CC(=O)O)C(=O)COc1c(F)cccc1F [qVD]
[1]; 10 μM aerugine
  neurite structure in presence of inhibitor: damage to the neurites still occurred and lost
  optimal concentrations for prevention of cell death: 2 to 4 µM
[1]
  prevention of aerugine-induced cell death (viability): completely prevented; also recorded: prevented cell death

## OCc1csc(-c2ccccc2O)n1 [aeruginol]
[2]
  cytotoxicity to DAergic neurons (viability): cytotoxic to DAergic neurons in a time- and concentration-dependent manner

## O=c1c2ccccc2[se]n1-c1ccccc1 [ebselen]
[1]
  maximal prevention of aerugine neurotoxicity: 60–90%

## O=C(O)C1CSC(c2ccccc2O)=N1 (stereo not shown) [DHAA, Dihydroaeruginoic acid, reference compound]
[2]
  cytotoxicity to DAergic neurons (viability): all toxicity was lost

## N[C@@H](CS)C(=O)O [cysteine]
[1]
  maximal prevention of aerugine neurotoxicity: 60–90%

## CN1C(=O)C(Cc2c[nH]c3ccccc23)NC1=S (stereo not shown) [necrostatin-1]
[1]
  prevention of aerugine-induced cell death (viability): only slightly attenuated cell death

## O=CC1CSC(c2ccccc2O)=N1 (stereo not shown) [dhIQS, dihydro-aeruginealdehyde]
[2]
  cytotoxicity to DAergic neurons (viability): all toxicity was lost

## O=Cc1csc(-c2ccccc2O)n1 [IQS, aeruginealdehyde]
[2]
  cytotoxicity to DAergic neurons (viability): about equipotent with aeruginol
[2]; within 24 h
  concentration range killing DAergic neurons: 10 to 25 µM

## N[C@@H](Cc1ccc(O)c(I)c1)C(=O)O [3-iodo-tyrosine]
[1]
  prevention of aerugine-induced cell death (viability): had no effect at all
